The target of the first assay is T1, Syk (Homo sapiens, UniProt P43405).
T1 construct: purchased Carna Biosciences
Briefly: Syk HTRF assay. As to conditions: IC50 activity level, read-out: Activity Level. Format: biochemical. The gist of the method:
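Read-out is the 665 nm/615 nm time-resolved fluorescence ratio after EDTA stop and Eu-anti-phosphotyrosine plus streptavidin-DyLight 647 detection. Reaction ran 1 h at room temperature with start mix of 87.5 μM ATP and 80 nM substrate peptide in pH 7.6 HEPES/MgCl2 buffer.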
A general note: In TR-FRET formats the signal depends on donor and acceptor labels being close together.
As for `Cc1cc(Nc2nc3cccc(CN4CCNC(=O)C4)n3n2)cc2c1C(C)(C)C(=O)N2` [Example 546], the IC50 was in the range of 0.005 to 250 nM.
As for `N[C@H]1CC[C@H](Oc2cccc3nc(Nc4ccc(C(F)(F)F)cc4)nn23)CC1` (stereo in doubt) [Example 422, trans-5-(4-aminocyclohexyloxy)-N-(4-(trifluoromethyl)phenyl)-[1,2,4]triazolo[1,5-a]pyridin-2-amine], the IC50 is 0.005 to 250 nM.
On the same count and under the same terms, the result for `O=C1NCc2ccc(-c3cccc4nc(Nc5ccccc5)nn34)cc21` [Example 500, 6-(2-(phenylamino)-[1,2,4]triazolo[1,5-a]pyridin-5-yl)-isoindolin-1-one] reads 500 to 1000 nM; that for `c1ccc(Nc2nc3cccc(NC4CCNCC4)n3n2)cc1` [Example 523, N^2-phenyl-N^5-(piperidin-4-yl)-[1,2,4]triazolo[1,5-a]pyridine-2,5-diamine], 500 to 1000 nM; that for `CNc1nc2cc(-c3cccc4nc(Nc5ccccc5)nn34)ccc2[nH]1` [Example 481, 5-(2-(methylamino)-1H-benzo[d]imidazol-5-yl)-N-phenyl-[1,2,4]triazolo[1,5-a]pyridin-2-amine], 0.005 to 250 nM.
The same measure, in the same setting: the result for `NCCN1Cc2cc(-c3cccc4nc(Nc5ccccc5)nn34)ccc2C1=O` [Example 494, 2-(2-aminoethyl)-5-(2-(phenylamino)-[1,2,4]triazolo[1,5-a]pyridin-5-yl)isoindolin-1-one] reads 500 to 1000 nM; that for `NC(=O)c1ccc(Nc2nc3cccc(N[C@H]4CC[C@@H](N)CC4)n3n2)cc1` [Example 493, cis-4-(5-(4-aminocyclohexylamino)-[1,2,4]triazolo[1,5-a]pyridin-2-ylamino)benzamide], 0.005 to 250 nM; that for `c1cncc(Nc2nc3cccc(NC4CCCNC4)n3n2)c1` (stereo in doubt) [Example 433, (S)-N^5-(piperidin-3-yl)-N^2-(pyridin-3-yl)-[1,2,4]triazolo[1,5-a]pyridin-2,5-diamine], 0.005 to 250 nM.
Take `Cc1nnc2cc(Nc3nc4cccc(CC5CCOCC5)n4n3)ccn12` [Example 538, 3-methyl-N-(5-((tetrahydro-2H-pyran-4-yl)methyl)-[1,2,4]triazolo[1,5-a]pyridin-2-yl)-[1,2,4]triazolo[4,3-a]pyridin-7-amine]: the IC50 lay in the range of 1000 to 10000 nM.
The same measure, in the same setting: the result for `OC[C@H]1CC[C@@H](Nc2cccc3nc(Nc4ccc(C(F)(F)F)cc4)nn23)CC1` [Example 410, cis-(4-(2-(4-(trifluoromethyl)phenylamino)-[1,2,4]triazolo[1,5-a]pyrridin-5-ylamino)cyclohexyl)methanol] reads 0.005 to 250 nM.

The assay is the same for the next values; noted with them: activity levels A-D, read-out: Activity Level (IC50 in the Syk HTRF assay).
`CC1C(=O)NCCN1Cc1cccc2nc(Nc3ccc(C(F)(F)F)cc3)nn12` (stereo not drawn) [Example 281, 3-methyl-4-((2-(4-(trifluoromethyl)phenylamino)-[1,2,4]triazolo[1,5-a]pyridin-5-yl)methyl)piperazin-2-one]: the IC50 lay within 0.005 to 250 nM.
In the case of `Cc1n[nH]c2cc(Nc3nc4cccc(N[C@H]5CCCC5O)n4n3)ccc12` (stereo in doubt) [Example 212, (1S,2S)-2-(2-(3-methyl-1H-indazol-6-ylamino)-[1,2,4]triazolo[1,5-a]pyridin-5-ylamino)cyclopentanol], the IC50 is 0.005 to 250 nM.
The same measure, in the same setting: the result for `CN(c1cccc2nc(Nc3ccc(C(F)(F)F)cc3)nn12)[C@H]1CC[C@@H](O)CC1` [Example 266, cis-4-(methyl(2-(4-(trifluoromethyl)phenylamino)-[1,2,4]triazolo[1,5-a]pyridin-5-yl)amino)cyclohexanol] reads 1000 to 10000 nM; that for `O=C1CN(Cc2cccc3nc(Nc4ccc(C(F)(F)F)cc4)nn23)C(=O)N1` [Example 252, 1-((2-(4-(trifluoromethyl)phenylamino)-[1,2,4]triazolo[1,5-a]pyridin-5-yl)methyl)imidazolidine-2,4-dione], 1000 to 10000 nM; that for `O[C@H]1CC[C@@H](Nc2cccc3nc(Nc4cccc(F)c4)nn23)CC1` [Example 355, cis-4-(2-(3-fluorophenylamino)-[1,2,4]triazolo[1,5-a]pyridin-5-ylamino)cyclohexanol], 0.005 to 250 nM.
On the same count and under the same terms, the result for `Nc1n[nH]c2cc(Nc3nc4cccc(N[C@H]5CC[C@@H](O)CC5)n4n3)ccc12` [Example 216, cis-4-(2-(3-amino-1H-indazol-6-ylamino)-[1,2,4]triazolo[1,5-a]pyridin-5-ylamino)cyclohexanol] reads 0.005 to 250 nM.
The same measure, in the same setting: the value for `OCC1CN(c2cccc3nc(Nc4ccc(C(F)(F)F)cc4)nn23)C1` [Example 259, (1-(2-(4-(trifluoromethyl)phenylamino)-[1,2,4]triazolo[1,5-a]pyridin-5-yl)azetidin-3-yl)methanol] was 0.005 to 250 nM.
Consider `O[C@H]1CC[C@@H](Nc2cccc3nc(Nc4ccnc(OCCN5CCCC5)c4)nn23)CC1` [Example 293, cis-4-(2-(2-(2-(pyrrolidiun-1-yl)ethoxy)pyridin-4-ylamino)-[1,2,4]triazolo[1,5-a]pyridin-5-ylamino)cyclohexanol], for which the IC50 is 500 to 1000 nM.
Same read-out and setting: the value for `CNC(=O)c1ccc(Nc2nc3cccc(OC4CCNCC4)n3n2)cc1` [Example 284, N-methyl-4-(5-(piperidin-4-yloxy)-[1,2,4]triazolo[1,5-a]pyridin-2-ylamino)benzamide] was 1000 to 10000 nM.
The same measure, in the same setting: the result for `Cc1ccc(Nc2nc3cccc(-c4ccc5nc(CO)[nH]c5c4)n3n2)cn1` [Example 285, (6-(2-(6-methylpyridin-3-ylamino)-[1,2,4]triazolo[1,5-a]pyridin-5-yl)-1H-benzo[d]imidazol-2-yl)methanol] reads 0.005 to 250 nM; that for `CNC(=O)c1ccc(Nc2nc3cccc(C[C@H]4CC[C@@H](O)C4)n3n2)cc1` (single isomer, unassigned; diastereomer 2) [Example 214, 4-(5-((3-hydroxycyclopentyl)methyl)-[1,2,4]triazolo[1,5-a]pyrridin-2-ylamino)-N-methylbenzamide (diastereomer 2)], 1000 to 10000 nM.
On the same count and under the same terms, the value for `COc1ccc(Nc2nc3cccc(N[C@H]4CC[C@@H](O)CC4)n3n2)cn1` [Example 391, cis-4-(2-(6-methoxypyridin-3-ylamino)-[1,2,4]triazolo[1,5-a]pyridin-5-ylamino)cyclohexanol] was 500 to 1000 nM; that for `NC(=O)c1ccc(Nc2nc3cccc(N[C@H]4CC[C@@H](O)CC4)n3n2)c(F)c1` [Example 340, cis-3-fluoro-4-(5-(4-hydroxycyclohexylamino)-[1,2,4]triazolo[1,5-a]pyridin-2-ylamino)benzamide] was 1000 to 10000 nM; that for `O[C@H]1CCC[C@H]1Nc1cccc2nc(Nc3ccc(C(F)(F)F)cc3)nn12` (stereo in doubt) [Example 376, (1S,2R)-2-(2-(4-(trifluoromethyl)phenylamino)-[1,2,4]triazolo[1,5-a]pyridin-5-ylamino)cyclopentanol] was 1000 to 10000 nM.

The same assay, now with this note: read-out: Activity Level (Syk HTRF assay IC50).
As to `OCc1nc2ccc(Nc3nc4cccc(-c5cccc(F)c5)n4n3)cc2[nH]1` [compound 3, (6-(5-(3-fluorophenyl)-[1,2,4]triazolo[1,5-a]pyridin-2-ylamino)-1H-benzo[d]imidazol-2-yl)methanol], the IC50 fell in the range of 0.005 to 250 nM.
Same read-out and setting: the value for `CNC(=O)c1ccc(Nc2nc3cccc(-c4cccc(CN)c4)n3n2)cc1` [compound 33, 4-(5-(3-(aminomethyl)phenyl)-[1,2,4]triazolo[1,5-a]pyridin-2-ylamino)-N-methylbenzamide] was 0.005 to 250 nM.
Still for that read-out and setting: the result for `N#Cc1cccc(Nc2nc3cccc(-c4ccccc4)n3n2)c1` [compound 66, 3-(5-phenyl-[1,2,4]triazolo[1,5-a]pyridin-2-ylamino)benzonitrile] reads 1000 to 10000 nM.
The same measure, in the same setting: the value for `CC(C)n1ncc2ccc(Nc3nc4cccc(CN5CCNC(=O)C5)n4n3)cc21` [Example 188, 4-((2-(1-isopropyl-1H-indazol-6-ylamino)-[1,2,4]triazolo[1,5-a]pyridin-5-yl)methyl)piperazin-2-one] was 0.005 to 250 nM; that for `CC1(C)C(=O)Nc2cc(Nc3nc4cccc(OC5CCOC5)n4n3)ccc21` (stereo in doubt) [Example 134, (R)-3,3-dimethyl-6-(5-(tetrahydrofuran-3-yloxy)-[1,2,4]triazolo[1,5-a]pyridin-2-ylamino)indolin-2-one] was 0.005 to 250 nM.
Turning to `CN1C(=O)Cc2ccc(Nc3nc4cccc(N[C@H]5CC[C@@H](O)CC5)n4n3)cc21` [Example 192, cis-6-(5-(4-hydroxycyclohexylamino)-[1,2,4]triazolo[1,5-a]pyridin-2-ylamino)-1-methylindolin-2-one], the IC50 was 0.005 to 250 nM.
As for `Fc1cccc(-c2cccc3nc(Nc4ccccc4)nn23)c1` [compound 81, 5-(3-fluorophenyl)-N-phenyl-[1,2,4]triazolo[1,5-a]pyridin-2-amine], the IC50 lay within 500 to 1000 nM.
Same read-out and setting: the result for `c1ccc(-c2cccc3nc(Nc4ccncc4)nn23)cc1` [compound 58, 5-phenyl-N-(pyridin-4-yl)-[1,2,4]triazolo[1,5-a]pyridin-2-amine] reads 500 to 1000 nM; that for `O=C1NCc2cc(Nc3nc4cccc(Cc5ccnc(O)c5)n4n3)ccc21` [Example 157, 5-(5-((2-hydroxypyridin-4-yl)methyl)-[1,2,4]triazolo[1,5-a]pyridin-2-ylamino)isoindolin-1-one], 0.005 to 250 nM.
On to `CC1(C)C(=O)Nc2cc(Nc3nc4cccc(CN5CCNC(=O)C5)n4n3)ccc21` [Example 172, 3,3-dimethyl-6-(5-((3-oxopiperazin-1-yl)methyl)-[1,2,4]triazolo[1,5-a]pyridin-2-ylamino)indolin-2-one], for which the IC50 was 0.005 to 250 nM.
Same read-out and setting: the value for `c1ccc(-c2cccc3nc(Nc4cccnc4)nn23)cc1` [compound 75, 5-phenyl-N-(pyridin-3-yl)-[1,2,4]triazolo[1,5-a]pyridin-2-amine] was 500 to 1000 nM.
`CN1C(=O)C(C)(C)c2ccc(Nc3nc4cccc(NC5CCOCC5)n4n3)cc21` [Example 151, 1,3,3-trimethyl-6-(5-(tetrahydro-2H-pyran-4-ylamino)-[1,2,4]triazolo[1,5-a]pyridin-2-ylamino)indolin-2-one]: the IC50 lay in the range of 0.005 to 250 nM.

For the origin of these results see patent US8299056B2 (Signal Pharmaceuticals, LLC, priority 2008, dated 2012).
